Values quoted from earlier work in patent US10842805B2, “Compositions containing enriched natural crocin and/or crocetin, and their therapeutic or nutraceutical uses” (priority 2012, dated 2020).

Tested on: ethanol-induced inhibition of hippocampal long-term potentiation
Settings: mouse, in vivo

Structure (SMILES): CC(/C=C/C=C(\C)C(=O)O)=C\C=C\C=C(C)\C=C\C=C(/C)C(=O)O [crocetin]
- constituent to which the beneficial effect of saffron extract is attributed: not crocetin

Structure (SMILES): CC(/C=C/C=C(\C)C(=O)O[C@@H]1O[C@H](CO[C@@H]2O[C@H](CO)[C@@H](O)[C@H](O)[C@H]2O)[C@@H](O)[C@H](O)[C@H]1O)=C\C=C\C=C(C)\C=C\C=C(/C)C(=O)O[C@@H]1O[C@H](CO[C@@H]2O[C@H](CO)[C@@H](O)[C@H](O)[C@H]2O)[C@@H](O)[C@H](O)[C@H]1O [crocin, Crocetin-di-beta-D-gentiobiosyl ester]
- constituent to which the beneficial effect of saffron extract is attributed: attributed to crocin
